We go through four compounds from patent US6903100B2, “USE OF REGULARLY SCHEDULED HIGH DOSE INTRAVENOUS METHOTREXATE THERAPY, WITH INTERIM ADMINISTRATION OF IMMUNOMODULATORY AGENTS, TO TREAT MULTIPLE SCLEROSIS AND OTHER DISEASES OF THE CENTRAL NERVOUS SYSTEM” (MidAmerica Neuroscience Research Foundation, priority 2001, dated 2005).

Series [1] can be described thus: Methotrexate in cerebrospinal fluid (CSF) after infusion. Type of series: in vivo. Particulars: five CSF samples, several patients and time points after infusion of 2 g/m^2. The protocol: Five samples of cerebrospinal fluid (CSF) were analyzed for methotrexate, representing several patients and several time points after methotrexate infusion of 2 g/m^2.
Series [2] in a line: Safety of high dose IV methotrexate with leucovorin rescue in MS patients. Type of series: in vivo. The protocol:
(§1) Methotrexate treatments were given every 2 months for up to 6 treatments. Methotrexate was administered by IV at a dosage of 1 g/m^2 for the first three treatments. […] The patients were then switched to doses of 2 g/m^2 of methotrexate for three subsequent treatments. Methotrexate was given after hydration and alkalization, with urine pH 7.0 or greater. The infusion was followed by continued hydration for several hours.
(§2) Each methotrexate treatment was followed by intravenous leucovorin rescue with 50 mg leucovorin eight hours after the start of the methotrexate infusion. Oral leucovorin (25 mg) was administered every 6 hours for a total of 12 doses after intravenous leucovorin rescue, and the serum methotrexate level measured. If necessary oral leucovorin was continued until the serum level reached 0.05 μM.

For another series, the system named is MS; CNS lymphomas. Particulars: cited from earlier work.
For a further series, the system named is relapsing progressive MS. As to the kind of experiment: MSFC clinical outcome (9-HPT, 25-ft walk, PASAT) in patients treated with bimonthly high dose IV methotrexate. In kind it is in vivo. Also noted: 9-HPT change / 25-ft walk change: unit not given here. As to the method:
Ten patients of relapsing progressive MS were treated with bimonthly high dose intravenous methotrexate with leucovorin rescue, combined with interim treatment with low dose immunomodulatory agents.
as §1, §2
At the time of study entry, all patients were being treated, with interferon (AVONEX® or BETA-SERON®), glatiramer acetate (COPAXONE®), or oral methotrexate. These medications were continued between treatments.
The clinical outcome was determined by MSFC scores at baseline and at two months follow up visits after each treatment. The MSFC is a clinical outcome measure, which measures three clinical functions involving hand dexterity, walking, and cognition. Two tailed paired t-test was used to compare the results of MSFC.

The conditions of series [3]: cited from earlier work; for crossing of the blood brain barrier (BBB) into the CNS: in vivo.
Where [4] appears, read: after one year of treatment, ten patients.
Where [5] appears, read: all patients together, two tailed paired t-test.
Setting [6] is: all patients together, two tailed paired t-test, p<0.05.
The mark [7] stands for this setting: individual patient, change from baseline after one year, IV 1 g/m^2 x3 then 2 g/m^2 x3, every 2 months, leucovorin rescue, interim agent.

Where “and” joins values, the source holds several entries; their conditions need not be identical. Identical values can stand only once.

Turning to `CN(Cc1cnc2nc(N)nc(N)c2n1)c1ccc(C(=O)N[C@@H](CCC(=O)O)C(=O)O)cc1` [Methotrexate, methotrexate], in series [1], the “crossing of the BBB (methotrexate in CSF)” value is “cross the BBB in cytotoxic amounts”. The tolerability result in series [2] (IV 1 g/m^2, first three treatments) is reported as “well tolerated”. The renal toxicity entry in series [2] (after one treatment, 2-week follow up creatinine clearance within acceptable limits) is reported as “one patient experienced Grade I renal toxicity”. In series [2] (ten patients), the alopecia entry was “No alopecia was noted”. In addition, the hematological toxicity entry in series [2] (ten patients, up to 6 treatments) is on record as “No hematological toxicity was observed”. In addition, in series [2] (ten patients, easily treated with Zofran), the nausea entry was “Five patients experienced some nausea”. In addition, in the series with MS; CNS lymphomas (in vivo, iv), the “toxicity of high dose in CNS lymphoma trials” value is “low toxicity” and the “toxicity of high dose sporadically administered” value is “no significant toxicity”. Also, the “toxicity of low-dose oral treatment in progressive MS” value with MS; CNS lymphomas (in vivo, po) is on record as “minimal toxicity”. In addition, the “upper extremity strength in MS patients” value with MS; CNS lymphomas (oral treatments) was “mild improvement”. For the same compound, the “MSFC scores of some of the patients” value in the series on relapsing progressive MS (after 3 treatments at 1 g/m^2) is listed as “improved significantly”. In the series on relapsing progressive MS (setting [4]), the “maximum increase of overall MSFC” value is recorded as “+1.28” and the “minimum increase of overall MSFC” value was “+0.08”. The “clinical assessment with MSFC scores” value in the series with relapsing progressive MS (after treatment) is reported as “significant improvement”. In addition, in the series on relapsing progressive MS (setting [5]), the “improvement in the 25-ft walk test” value is “not significant” and the “improvement in the PASAT test” value was “not significant”. For the same compound, in the series with relapsing progressive MS (setting [6]), the “mean nine-hole peg score after treatment” value is reported as “significant improvement” and the “mean overall MSFC score after treatment” value is reported as “significant improvement”. Further, in the series on relapsing progressive MS (setting [7]), the 9-HPT change result is “+0.45 and +0.86 and −0.31 and +0.20 and +0.83 and +0.30 and −0.10 and +0.80 and +1.07 and +0.70”; the 25-ft walk change result was “+0.04 and 0.00 and −0.01 (2×) and +0.08 and +0.14 and −0.04 and −0.07 and −0.22 and +0.53”; the MSFC change entry was “+0.38 and +0.31 and +0.25 and +0.18 and +0.13 and +0.09 and +0.08 (2×) and +1.28 and +0.56”; the PASAT change entry is “+0.66 and +0.08 and +1.08 and +0.25 and −0.58 and 0.00 and +0.41 and −0.33 and +2.24 and +0.99”. For the same compound, in the series on relapsing progressive MS (of 10), the “PASAT (cognitive function): patients improved” value worked out at 6 patients, the “PASAT (cognitive function): patients turned worse” value is listed as 2, the “PASAT (cognitive function): patients unchanged” value worked out at 2 and the “nine-hole peg test (arm function): patients improved” value is given as 8 patients. In addition, in the series on relapsing progressive MS (of 10), the “nine-hole peg test (arm function): patients unchanged” value was 1, the “nine-hole peg test (arm function): patients with minor worsening” value stood at 1 patient, the “timed 25-ft walk (leg function): patients unchanged” value is 7 and the “timed 25-ft walk (leg function): patients with improvement” value was determined as 2 patients. For the same compound, in the series with relapsing progressive MS (of 10), the “timed 25-ft walk (leg function): patients with slight worsening” value is on record as 1. In addition, in the series with relapsing progressive MS (of 10, after one year, change >+0.1), the “patients improved on MSFC” value is “seven”. The “patients unchanged on MSFC” value in the series with relapsing progressive MS (of 10, after one year, change less than 0.1) is on record as “three”. The “deterioration of symptoms of progressive MS” value in the series with relapsing progressive MS (periodic high dose with leucovorin rescue and interim treatments) was “halted the deterioration of the symptoms in every patient treated”. The “serum level relative to crossing the BBB” value in series [3] (administered orally) was “not sufficient to cross the BBB in cytotoxic amounts”.

`O=P1(N(CCCl)CCCl)NCCCO1` (centres unmarked) [cyclophosphamide]: the “efficacy against the progression of MS” value with MS; CNS lymphomas (in vivo) is given as “some efficacy”. Also, in series [3], the “crossing of the blood brain barrier (BBB) into the CNS” value (“crossing of the blood brain barrier” for short) is given as “do not cross the blood brain barrier”.

For `Nc1nc2c(c(=O)[nH]1)N(C=O)C(CNc1ccc(C(=O)N[C@@H](CCC(=O)O)C(=O)O)cc1)CN2` (some centres unmarked) [leucovorin], the “crossing of the blood brain barrier” value in series [3] is “does not penetrate the BBB”.

Turning to `O=C1c2c(O)ccc(O)c2C(=O)c2c(NCCNCCO)ccc(NCCNCCO)c21` [mitoxantrone], in the series with MS; CNS lymphomas (in vivo), the “efficacy against the progression of MS” value is given as “some efficacy” and the toxicity limiting use result is recorded as “limited lifetime use due to toxicity”. Moreover, the “crossing of the blood brain barrier” value in series [3] is “do not cross the blood brain barrier”.
